# US10392630B2, “Plants having increased tolerance to herbicides” (BASF AGRO B.V., priority 2013, dated 2019)
# Numbering of substitutions follows the chain as printed.
# How the values were obtained:
# Assay in all cases: biochemical
# [1] = target: T1, Amaranthus mutant PPO (AMARE) (Amaranthus tuberculatus, UniProt Q0NZW9, F420V)
# T1 sequence (Q0NZW9 1-534 F420V): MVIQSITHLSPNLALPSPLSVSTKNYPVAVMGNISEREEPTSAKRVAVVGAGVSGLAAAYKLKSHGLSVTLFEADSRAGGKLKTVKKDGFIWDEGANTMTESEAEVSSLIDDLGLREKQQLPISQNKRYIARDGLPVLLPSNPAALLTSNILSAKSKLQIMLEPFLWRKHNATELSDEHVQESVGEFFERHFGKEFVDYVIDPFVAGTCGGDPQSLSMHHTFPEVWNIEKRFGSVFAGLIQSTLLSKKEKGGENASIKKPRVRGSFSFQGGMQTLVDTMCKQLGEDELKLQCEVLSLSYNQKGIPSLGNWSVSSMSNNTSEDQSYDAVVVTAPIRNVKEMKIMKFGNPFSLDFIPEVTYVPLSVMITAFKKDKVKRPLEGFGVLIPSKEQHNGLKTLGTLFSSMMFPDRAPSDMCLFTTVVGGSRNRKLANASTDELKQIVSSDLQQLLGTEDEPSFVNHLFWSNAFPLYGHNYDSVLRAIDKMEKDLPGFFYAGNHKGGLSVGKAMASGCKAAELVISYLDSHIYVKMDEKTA
# [2] = target: T2, Amaranthus mutant PPO (AMARE) (Amaranthus tuberculatus, UniProt Q0NZW9, F420V/R128L)
# T2 sequence (Q0NZW9 1-534 R128L/F420V): T1 sequence (Q0NZW9 1-534 F420V) with R128L
# [3] = target: T3, Amaranthus mutant PPO (AMARE) (Amaranthus tuberculatus, UniProt Q0NZW9, F420L/R128L)
# T3 sequence (Q0NZW9 1-534 R128L/F420L): T1 sequence (Q0NZW9 1-534 F420V) with R128L, V420L
# [4] = target: T4, Amaranthus mutant PPO (AMARE) (Amaranthus tuberculatus, UniProt Q0NZW7)
# T4 sequence (Q0NZW7 1-533): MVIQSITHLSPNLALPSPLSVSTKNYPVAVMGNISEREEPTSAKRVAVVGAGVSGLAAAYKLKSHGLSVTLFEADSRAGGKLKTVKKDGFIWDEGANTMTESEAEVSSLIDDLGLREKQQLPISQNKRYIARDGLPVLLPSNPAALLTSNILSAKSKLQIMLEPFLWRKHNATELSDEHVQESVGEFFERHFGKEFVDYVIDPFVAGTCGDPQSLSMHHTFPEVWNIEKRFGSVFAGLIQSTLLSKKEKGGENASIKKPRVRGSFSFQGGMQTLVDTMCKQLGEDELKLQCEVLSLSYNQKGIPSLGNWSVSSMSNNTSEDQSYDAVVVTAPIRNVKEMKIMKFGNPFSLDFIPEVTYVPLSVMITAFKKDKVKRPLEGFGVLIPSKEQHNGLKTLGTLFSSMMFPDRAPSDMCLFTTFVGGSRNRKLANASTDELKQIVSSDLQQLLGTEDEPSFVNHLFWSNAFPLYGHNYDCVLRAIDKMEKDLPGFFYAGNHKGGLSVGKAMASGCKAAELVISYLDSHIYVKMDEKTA
# [5] = target: T5, Amaranthus mutant PPO (AMARE) (Amaranthus tuberculatus, UniProt Q0NZW9, F420L/R128A)
# T5 sequence (Q0NZW9 1-534 R128A/F420L): T1 sequence (Q0NZW9 1-534 F420V) with R128A, V420L
Structure (SMILES),IC50 [1],IC50 [2],IC50 [3],IC50 [4],IC50 [5]
C#CCN1C(=O)C(F)(F)Oc2cc(F)c(-n3c(=O)n(C)c(=S)n(C)c3=O)cc21 [BAS 850H],1.61 nM,1510 nM,1710 nM,2.12 nM,16.2 nM
CC(C)N(C)S(=O)(=O)NC(=O)c1cc(-n2c(=O)cc(C(F)(F)F)n(C)c2=O)c(F)cc1Cl [saflufenacil],1590 nM,> 10000 nM,> 10000 nM,1600 nM,> 10000 nM
